Data from patent publication US20250049819A1, “METHODS FOR TREATING AND PREVENTING C. DIFFICILE INFECTION” (Paratek Pharmaceuticals, Inc., priority 2016, published 2025).
In brackets after ≈: the same amount, converted by molar mass. Entries after “also recorded” stand apart in the source; their conditions may differ. Where two headings read alike, the source gives them in different places.

Tests used:
[1] = tested on: C. difficile strains (N = 27); test: MIC by broth microdilution against C. difficile clinical isolates; format: cell-based; design: Broth Microdilution Range (Minimum Inhibitory Concentration): unit not given here; settings: 27 isolates; for MIC50 / MIC90: Clostridioides difficile
Method: (§1) The activity of omadacycline was tested in vitro against 27 clinical isolates of C. difficile. […] The experiments were carried out using broth and agar microdilution methods according to Clinical and Laboratory Standards Institute (CLSI) guidelines. […] Each test was run in duplicate.

[2] = tested on: C. difficile strain ATCC 43596; test: MIC90 against the infection model strain; format: cell-based
[3] = tested on: C. difficile strains (N = 27); test: MIC by agar dilution against C. difficile clinical isolates; format: cell-based; settings: 27 isolates
Method: as §1

[4] = tested on: C. difficile and gut microbiota; settings: published gut model studies; cited from earlier work
[5] = tested on: gut microflora populations; test: In vitro human gut model, gut microflora populations (Example 4); format: cell-based
Method: (§2) The gut model was inoculated with pooled fecal slurry (5 volunteers ≥60 years of age with no history of antibiotic therapy in the previous 3 months) and left for 2 weeks to allow the bacterial populations to achieve steady state. A single inoculum (˜10^7 cfu/mL) of C. difficile spores (PCR ribotype 027 strain 210) was added into vessel 1 of the gut model on day 14. One week later, on day 21, a second aliquot of C. difficile spores was added, and antibiotic instillation commenced. Model A (LHS) was exposed to moxifloxacin (43 mg/L, once daily, for 7 days) and Model B (RHS) was exposed to omadacycline (430 mg/L, once daily, for 7 days) commenced on day 21.
(§3) Bacterial populations in the gut model were monitored using selective agars to count viable bacterial colonies. Populations were monitored every other day for the first 2 weeks until the steady state was reached, and daily thereafter. C. difficile populations were monitored in all three vessels, and all other bacterial groups (total obligate anaerobes, total facultative anaerobes, lactose fermenting Enterobacteriaceae, Enterococci, total Clostridia, Lactobacilli, Bifidobacteria and B. fragilis group) were monitored in vessels 2 and 3 only. Vessel 3, which represents the distal colon, is of most physiological relevance in terms of propensity to induce CDI. C. difficile total viable counts and spores counts were monitored using viable counting and a differential alcohol shock viable count on selective agars. From day 14 onwards C. difficile cytotoxin was measured using a quantitative VERO cell cytotoxicity assay. Samples of 1 mL each were centrifuged at 16,000×g for 15 minutes, and the supernatants were removed. Six 1:10 serial dilutions (to 10^−6) of culture supernatants from the gut model were prepared. Twenty microliters of the appropriate dilution was added to VERO cell monolayers and a further 20 μL of C. sordellii antitoxin (diluted 1:10 in sterile distilled water) was placed in the corresponding antitoxin row. Monolayers were examined after 24 and 48 hours of incubation in 5% CO2, with a positive result indicated by the presence of cell rounding with concurrent neutralization of the effect by C. sordellii antitoxin. Cytotoxin titers (relative units, RU) were an arbitrary log10 scale, and the cytotoxin titer is reported in the highest dilution with >70% cell rounding, i.e. 10^0=1 RU, 10^−1=2 RU, 10^−2=3 RU. Samples were taken daily from day 21 onwards to determine antimicrobial concentrations in the gut model vessels by a bioassay. Concentrations of moxifloxacin were determined using Isosensitest agar with Escherichia coli as the indicator organism. Concentrations of omadacyline were determined using Wilkins Chalgren agar with Kocuria rhizophila as the indicator organism.

[6] = tested on: C. difficile PCR ribotype 027 strain 210; test: In vitro human gut model, C. difficile germination, proliferation and toxin production (Example 4); format: cell-based
Method: as §2, §3

[7] = tested on: C. difficile strain ATCC 43596; test: Hamster model of C. difficile-associated diarrhea, survival; format: in vivo
[8] = Wilkins-Chalgren broth, 48 hours anaerobic
[9] = Wilkins-Chalgren broth, 48 hours anaerobic, read-out: Broth Microdilution MIC90
[10] = Clostridioides difficile, ATCC43596, replicate plate A, read-out: MIC90 Plate A
[11] = Clostridioides difficile, ATCC43596, replicate plate B, read-out: MIC90 Plate B
[12] = vessels 2 and 3, once daily for 7 days
[13] = vessel 1, 43 mg/L once daily for 7 days
[14] = vessel 2 and vessel 3, 43 mg/L once daily for 7 days
[15] = Clostridioides difficile, ATCC43596, read-out: MIC90
[16] = oral 50 mg/kg/day for 5 days, N=10

CCC[C@@H]1C[C@@H](C(=O)N[C@@H]([C@H]2O[C@H](SC)[C@H](O)[C@@H](O)[C@H]2O)[C@H](C)Cl)N(C)C1 [Clindamycin]
MIC50 [1, 8]: 4000 µg/mL (≈ 9410 µM)
MIC90 [1, 9]: > 16000 µg/mL
MIC90 [2]: no activity
MIC90 [2, 10]: > 32 µg/mL
MIC90 [2, 11]: > 32 µg/mL

C[C@H]1c2cccc(O)c2C(=O)C2=C(O)[C@]3(O)C(=O)C(C(N)=O)=C(O)[C@@H](N(C)C)[C@@H]3[C@@H](O)[C@@H]21 [Doxycycline]
MIC90 ([1]; read-out: MIC90 by broth dilution): 0.5 µg/mL (≈ 1.13 µM)
MIC50 [1, 8]: 30 µg/mL (≈ 67.5 µM)
MIC90 [1, 9]: 500 µg/mL (≈ 1130 µM)
MIC90 ([3]; Clostridioides difficile): 1 µg/mL (≈ 2.25 µM)

CO/N=C(\C(=O)N[C@@H]1C(=O)N2C(C(=O)O)=C(COC(C)=O)CS[C@H]12)c1csc(N)n1 [Cefotaxime]
MIC50 [1, 8]: 64000 µg/mL (≈ 141000 µM)

C[C@@H](O)[C@H]1C(=O)N2C(C(=O)O)=C(SCCN=CN)C[C@H]12 [Imipenem]
MIC50 [1, 8]: 4000 µg/mL (≈ 13400 µM)
MIC90 [1, 9]: 8000 µg/mL (≈ 26700 µM)

piperacillin-tazobactam
induction of simulated CDI (C. difficile germination and toxin production) in the gut model [4]: do not promote C. difficile germination and toxin production; also recorded: have not induced simulated CDI in the gut model

amoxicillin clavulanate
Broth Microdilution MIC50 [1, 8]: 250 µg/mL
Broth Microdilution MIC90 [1, 8]: 500 µg/mL
Broth Microdilution Range (Minimum Inhibitory Concentration) [1, 8]: 0.12-0.5
Agar Microdilution MIC50 ([3]; agar dilution): 50 µg/mL
Agar Microdilution MIC90 ([3]; agar dilution): 1000 µg/mL
Agar Microdilution Range (Minimum Inhibitory Concentration) ([3]; agar dilution): 0.25-1

COc1c(N2C[C@@H]3CCCN[C@@H]3C2)c(F)cc2c(=O)c(C(=O)O)cn(C3CC3)c12 [Moxifloxacin]
time for all populations to return to pre-antibiotic levels following end of antibiotic exposure ([5]; all populations): ~1 week
decline in B. fragilis group populations, vessel 2 ([5]; vessel 2, 43 mg/L once daily for 7 days): ~8 log10 cfu/mL
decline in B. fragilis group populations, vessel 3 ([5]; vessel 3, 43 mg/L once daily for 7 days): ~4 log10 cfu/mL
decline in Enterococcus spp. / Enterococci populations [5, 12]: ~4 log10 cfu/mL
decline in Lactobacilli [5, 12]: ~3 log10 cfu/mL
C. difficile toxin detection (VERO cell cytotoxicity assay) ([6]; all vessels): toxin detected in all three vessels
day by which toxin was undetectable in all vessels ([6]; all vessels): ≤ 42 days
signs of simulated CDI ([6]; once daily for 7 days, omadacycline 430 mg/L, moxifloxacin 43 mg/L): induced simulated CDI
peak C. difficile cytotoxin titer, vessel 1 [6, 13]: 2 relative units
peak C. difficile total viable counts, vessel 1 [6, 13]: ~4.5 log10 cfu/mL
peak C. difficile cytotoxin titer, vessel 2 and vessel 3 [6, 14]: 3 relative units
peak C. difficile total viable counts, vessel 2 and vessel 3 [6, 14]: ~6 log10 cfu/mL

Cc1ncc([N+](=O)[O-])n1CCO [Metronidazole]
MIC50 [1, 8]: 120 µg/mL (≈ 701 µM)
MIC90 [1, 9]: 500 µg/mL (≈ 2920 µM)
Agar Microdilution Range (Minimum Inhibitory Concentration) ([3]; agar dilution): 0.06 to 0.5 mg/mL
MIC90 [2, 15]: 0.06 µg/mL (≈ 0.351 µM)
MIC90 [2, 10]: 0.06 µg/mL (≈ 0.351 µM)
MIC90 [2, 11]: 0.06 µg/mL (≈ 0.351 µM)

CN(C)c1cc(NC(=O)CNC(C)(C)C)c(O)c2c1C[C@H]1C[C@H]3[C@H](N(C)C)C(O)=C(C(N)=O)C(=O)[C@@]3(O)C(O)=C1C2=O [Tigecycline]
MIC90 ([2]; Clostridioides difficile, ATCC43596): 0.06 µg/mL (≈ 0.102 µM)
MIC90 ([2]; Clostridioides difficile, ATCC43596, read-out: MIC90 Plate A): 0.06 µg/mL (≈ 0.102 µM)
MIC90 ([2]; Clostridioides difficile, ATCC43596, read-out: MIC90 Plate B): 0.06 µg/mL (≈ 0.102 µM)
induction of simulated CDI (C. difficile germination and toxin production) in the gut model [4]: do not promote C. difficile germination and toxin production; also recorded: have not induced simulated CDI in the gut model

CN[C@H](CC(C)C)C(=O)N[C@H]1C(=O)N[C@@H](CC(N)=O)C(=O)N[C@H]2C(=O)N[C@H]3C(=O)N[C@H](C(=O)N[C@H](C(=O)O)c4cc(O)cc(O)c4-c4cc3ccc4O)[C@H](O)c3ccc(c(Cl)c3)Oc3cc2cc(c3O[C@@H]2O[C@H](CO)[C@@H](O)[C@H](O)[C@H]2O[C@H]2C[C@](C)(N)[C@H](O)[C@H](C)O2)Oc2ccc(cc2Cl)[C@H]1O [Vancomycin]
MIC90 [2, 15]: 0.06 µg/mL (≈ 0.0414 µM)
MIC90 [2, 10]: 0.06 µg/mL (≈ 0.0414 µM)
MIC90 [2, 11]: 0.06 µg/mL (≈ 0.0414 µM)
Median Survival ([7]; hamster, in vivo): 2 days
percent survival at day 2 post infection ([7]; hamster, in vivo): 40%
percent survival by day 11 [7, 16]: 30%
survival by day 14 [7, 16]: all animals succumbed to the infection
